Structures are written as SMILES. Values joined by “and” are separate entries in the source; they are usually repeats but may differ in a detail not shown here. Equal entries are not always repeated.

The assay is described as follows: Huh 7.5.1 ATPlite assay : This example demonstrates the EC50 and CC50 values against HCV according to the HCVcc-RLuc reporter assay described in Example 5 and the cytotoxicity using the Huh 7.5.1 ATPlite assay for compounds in accordance with an embodiment of the invention. On the technique in general: Cellular ATP, detected with luciferase, serves as a proxy for viable cell number.

On to `Cc1cc(C)cc(C2=NC(CN3CCC(C(=O)NCCCN4C[C@H](C)C[C@H](C)C4)CC3)C(C)O2)c1` (stereo partly drawn), for which the EC50 (Huh-7.5.1) came out at 36 nM.
As to `CCN(CC)CCCCNC(=O)C1CCN(CC2N=C(c3cc(OC)cc(OC)c3)OC2C)CC1` (stereo not drawn), the EC50 (Huh-7.5.1) is 6550 nM.
On the same count and under the same terms, under `Cc1cc(C)c(C2=NC(CN3CCC(C(=O)NCCCN4C[C@H](C)C[C@H](C)C4)CC3)C(C)O2)c(C)c1` (stereo partly drawn) stands 190 nM; under `CCc1ccccc1C1=NC(CN2CCC(C(=O)NCCCN3C[C@H](C)C[C@H](C)C3)CC2)C(C)O1` (stereo partly drawn), 140 nM.
For the molecule `COc1cccc(Br)c1C1=NC(CN2CCC(C(=O)NCCCN3C[C@H](C)C[C@H](C)C3)CC2)C(C)O1` (stereo partly drawn), where the note is “Huh-7.5.1”, the EC50 is 213 nM.
Turning to `C[C@@H]1C[C@H](C)CN(CCCNC(=O)C2CCN(Cc3oc(-c4cc(C(F)(F)F)cc(C(F)(F)F)c4)nc3C(F)(F)F)CC2)C1`, the response (Huh-7.5.1) was half-maximal at 153 nM (EC50).
In turn, `CC1OC(c2ccccc2Cl)=NC1CN1CCC(C(=O)NCCCN2C[C@H](C)C[C@H](C)C2)CC1` (stereo partly drawn) had an EC50 (Huh-7.5.1) of 86 nM.
In the case of `CC1OC(c2c(F)cccc2Cl)=NC1CN1CCC(C(=O)NCCCN2C[C@H](C)C[C@H](C)C2)CC1` (stereo partly drawn), for the setting “Huh-7.5.1”, it took 334 nM to reach a half-maximal effect (EC50).
As for `Cc1ccccc1-c1nc(CN2CCC(C(=O)NCCCN3C[C@H](C)C[C@H](C)C3)CC2)c(C)s1`, the EC50 (Huh-7.5.1) was 38 nM.
In the case of `Cc1ccccc1C1=NC(CN2CCC(C(=O)NCCN3CCCCC3)CC2)C(C)O1` (stereo not drawn), a half-maximal effect (Huh-7.5.1) (EC50) was put at 1200 nM.
Same read-out and setting: in the case of `CC1OC(c2c(Cl)cccc2Cl)=NC1CN1CCC(C(=O)NCCCN2C[C@H](C)C[C@H](C)C2)CC1` (stereo partly drawn) it was 221 nM; in that of `CC1OC(c2ccc(F)cc2)=NC1CN1CCC(C(=O)NCCCN2C[C@H](C)C[C@H](C)C2)CC1` (stereo partly drawn), 53 nM; in that of `Cc1cc(-c2nc(CN3CCC(C(=O)NCCCN4C[C@H](C)C[C@H](C)C4)CC3)co2)ccc1F`, 38 nM.
Take `CC1OC(c2c(Cl)cccc2Br)=NC1CN1CCC(C(=O)NCCCN2C[C@H](C)C[C@H](C)C2)CC1` (stereo partly drawn): the EC50 is 178 nM and 386 nM.
Regarding `COc1cccc(F)c1C1=NC(CN2CCC(C(=O)NCCCN3C[C@H](C)C[C@H](C)C3)CC2)C(C)O1` (stereo partly drawn), for the setting “Huh-7.5.1”, it took 455 nM to reach a half-maximal effect (EC50).
Under “Huh-7.5.1”, `Cc1ccccc1C1=NC(CN2CCC(C(=O)N3CCN(CCN(C)C)CC3)CC2)C(C)O1` (stereo not drawn) had an EC50 of 6100 nM.
With `CC1CCCN(CCCNC(=O)C2CCN(Cc3oc(-c4cc(C(F)(F)F)cc(C(F)(F)F)c4)nc3C(F)(F)F)CC2)C1` (stereo not drawn), the EC50 (Huh-7.5.1) was 341 nM.
The molecule `CC1OC(c2ccc(Cl)c(Cl)c2)=NC1CN1CCC(C(=O)NCCCN2C[C@H](C)C[C@H](C)C2)CC1` (stereo partly drawn) registered an EC50 (Huh-7.5.1) of 13 nM.
The same measure, in the same setting: under `Cc1ccccc1C1=NC(CN2CCC(C(=O)NCCCN3CCC(C)CC3)CC2)C(C)O1` (stereo not drawn) stands 400 nM; under `CC1OC(c2ccc(Cl)cc2)=NC1CN1CCC(C(=O)NCCCN2C[C@H](C)C[C@H](C)C2)CC1` (stereo partly drawn), 110 nM.
The molecule `Cc1ccc(C2=NC(CN3CCC(C(=O)NCCCN4C[C@H](C)C[C@H](C)C4)CC3)C(C)O2)cc1` (stereo partly drawn) came in with an EC50 (Huh-7.5.1) of 100 nM.
For the setting “Huh-7.5.1”, `COc1cc(OC)cc(C2=NC(CN3CCC(C(=O)NCCCN4CC(C)CC(C)C4)CC3)C(C)O2)c1` (stereo not drawn) yielded an EC50 of 680 nM.
For the molecule `Cc1ccccc1-c1nc(CN2CCC[C@@H](C(=O)NCCCN3C[C@H](C)C[C@H](C)C3)C2)c(C)o1`, where the note is “Huh-7.5.1”, the EC50 worked out at 304 nM.
`Cc1cccc(Cl)c1C1=NC(CN2CCC(C(=O)NCCCN3C[C@H](C)C[C@H](C)C3)CC2)C(C)O1` (stereo partly drawn) registered an EC50 (Huh-7.5.1) of 14 nM.
As to `CC1OC(c2c(F)cccc2F)=NC1CN1CCC(C(=O)NCCCN2C[C@H](C)C[C@H](C)C2)CC1` (stereo partly drawn), the response (Huh-7.5.1) was half-maximal at 624 nM (EC50).
On to `Cc1cccc(Cl)c1C1=NC(CN2CCC(C(=O)NCCCN3CCC(C)(C)CC3)CC2)C(C)O1` (stereo not drawn), for which the EC50 (Huh-7.5.1) was determined as 220 nM.
For the setting “Huh-7.5.1”, `Cc1ccccc1-c1nc(CC2CCC[C@@H](C(=O)CCCCN3C[C@H](C)C[C@H](C)C3)C2)c(C)o1` (stereo partly drawn) had an EC50 of 410 nM.
Turning to `Cc1ccc(C2=NC(CN3CCC(C(=O)NCCCN4C[C@H](C)C[C@H](C)C4)CC3)C(C)O2)cc1C` (stereo partly drawn), the EC50 (Huh-7.5.1) was determined as 98 nM.

The term EC50 denotes the midpoint of the concentration-response curve. Read a low EC50 as greater potency.

The values are drawn from ChEMBL document CHEMBL5726468, “Heterocyclic compounds and methods of use thereof” (2019).
